Values after ≈ are worked out from the molar mass of the structure shown.
How the values were obtained:
[1] = Solubility of esters in oils (solvent added in increments until a room temperature solubility is obtained); assay type: physicochemical; details: for Solubility Limit / solubility: castor oil, room temperature; for solubility: oil or lipid, thermodynamic from solid, read-out: Solubility Limit
Description: About 150 mg samples of each drug substance in Table are placed in about 300 mg of a test solvent in a test tube. The samples are swirled and gently heated with a warm water bath. Additional solvent is added in about 100 mg increments until solubility is reached. The samples are cooled overnight and if precipitation is observed, then more solvent is again added in portions until a room temperature solubility is obtained. […] Ganaxolone enanthate is a liquid and appeared miscible in the oils tested.

[2] = tested on: migraine; details: phase 2 clinical trial for migraine; cited from earlier work
[3] = post-oral administration; cited from earlier work

| SMILES | Solubility Limit [1] [% w/w] | solubility [1] [mg/mL] | Miscibility in the oils tested ([1]; oils tested, substance is a liquid) | benefit on time to pain relief [2] | drug recovered in feces [3] [%] |
| --- | --- | --- | --- | --- | --- |
| CC(=O)[C@H]1CC[C@H]2[C@@H]3CC[C@H]4C[C@H](O)CC[C@]4(C)[C@H]3CC[C@]12C [Allopregnanolone, 5α-pregnan-3α-ol-20-one] | < 1 | < 10 |  |  |  |
| CCCCCCC(=O)OC1(C)CCC2(C)C(CCC3C2CCC2(C)C(C(C)=O)CCC32)C1 (stereo not shown) [Ganaxalone Enanthate] |  |  | miscible |  |  |
| CC(=O)[C@H]1CC[C@H]2[C@@H]3CC[C@H]4C[C@](C)(O)CC[C@]4(C)[C@H]3CC[C@]12C [Ganaxalone, 3a-hydroxy-3-methyl-5a-pregnan-20-one] | ~1 | ~10 (≈ 30.1 mM) |  | failed to show benefit | ~80 |
